Reference: the supplement of paper PMC10307832

Assays:
Experiment in all cases: relative viability (nuclei count vs DMSO), 5 days (fraction); higher = more cells survive
[1] = compound: C1CSC2=C(C(=O)N1)SC3=C2C=C(C=C3)O [kb NB 142-70] + Cc1cc(Nc2cc(N3CCN(C)CC3)nc(Sc3ccc(NC(=O)C4CC4)cc3)n2)n[nH]1 [Tozasertib] (partner 0.1 µM)
Procedure, shortened: (§1)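 Medians of duplicate plates are given as relative viability. That measure is the nuclei count in treated wells divided by the count in vehicle wells. Counts were taken on 4× images of lung cancer cell lines in 1536-well plates, 5 days after pin-tool dosing the day after seeding with one drug alone or a fixed anchor-drug dose plus five library-drug doses (not always all listed) in √10 steps.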

[2] = compound: C1CSC2=C(C(=O)N1)SC3=C2C=C(C=C3)O [kb NB 142-70] + Nc1ncn([C@H]2C[C@H](O)[C@@H](CO)O2)c(=O)n1 [Decitabine] (partner 2 µM)
Procedure, shortened: as §1

[3] = compound: NCC(=O)Nc1ccc(-n2nc(C(F)(F)F)cc2-c2ccc3c(ccc4ccccc43)c2)cc1 + COc1cccc2cc(-c3nc([C@H]4CC[C@H](C(=O)O)CC4)n4ncnc(N)c34)[nH]c12 [OSI-027] (partner 0.5 µM)
Procedure, shortened: as §1

[4] = compound: NCC(=O)Nc1ccc(-n2nc(C(F)(F)F)cc2-c2ccc3c(ccc4ccccc43)c2)cc1 + Cc1nc(Nc2ncc(C(=O)Nc3c(C)cccc3Cl)s2)cc(N2CCN(CCO)CC2)n1 [Dasatinib] (partner 0.075 µM)
Procedure, shortened: as §1

Q: What does the source list for UMC-11?
A: relative viability ([1]; first compound 0.1 µM): 0.217; relative viability ([1]; first compound 1 µM): 0.179; relative viability ([1]; first compound 3.162 µM): 0.18; relative viability ([2]; first compound 0.1 µM): 0.547; relative viability ([2]; first compound 1 µM): 0.639; relative viability ([2]; first compound 3.162 µM): 0.378; relative viability ([3]; first compound 0.02 µM): 0.402; relative viability ([3]; first compound 0.06325 µM): 0.475; relative viability ([3]; first compound 0.2 µM): 0.485; relative viability ([3]; first compound 0.6325 µM): 0.443; relative viability ([3]; first compound 2 µM): 0.453; relative viability ([4]; first compound 0.02 µM): 0.426; relative viability ([4]; first compound 0.06325 µM): 0.416; relative viability ([4]; first compound 0.2 µM): 0.466; relative viability ([4]; first compound 0.6325 µM): 0.432; relative viability ([4]; first compound 2 µM): 0.42
